In PMC12645437, “Orthogonal IMiD-Degron Pairs Induce Selective Protein Degradation in Cells” (ACS Chemical Biology, 2025):
Like-named read-outs stand apart in the source and are kept apart here.

Tests used:
[1] = biological target: T1, Q147A mutant degron (ANQS) fused to EGFP (Homo sapiens, UniProt Q96SW2+Q9UKT9, Q147A); test: Ratiometric EGFP:mCherry flow cytometry degradation assay, 18 h; assay type: cell-based; conditions: Jurkat, read-out: DMax Q147A/%
T1 construct: pLVX-Sprout-IKZF3 130-189aa Q147A (ANQS); expressed in transfected cells
T1 sequence (Q9UKT9 130-189 Q147A): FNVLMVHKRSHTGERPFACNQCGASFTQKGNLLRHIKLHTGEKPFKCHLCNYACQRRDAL
T1 sequence (Q96SW2 whole entry, the tested form may be a part): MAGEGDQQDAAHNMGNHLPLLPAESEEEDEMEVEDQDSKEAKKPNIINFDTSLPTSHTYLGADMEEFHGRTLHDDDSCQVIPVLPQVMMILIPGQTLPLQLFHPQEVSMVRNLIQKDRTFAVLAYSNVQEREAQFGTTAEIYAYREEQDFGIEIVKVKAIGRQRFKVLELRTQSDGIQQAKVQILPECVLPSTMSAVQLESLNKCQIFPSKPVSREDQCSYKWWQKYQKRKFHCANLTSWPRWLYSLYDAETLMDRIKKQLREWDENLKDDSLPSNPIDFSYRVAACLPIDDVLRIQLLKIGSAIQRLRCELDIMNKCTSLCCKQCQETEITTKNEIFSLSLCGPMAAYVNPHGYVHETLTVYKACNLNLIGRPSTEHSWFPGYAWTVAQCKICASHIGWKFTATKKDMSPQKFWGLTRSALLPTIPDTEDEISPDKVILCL
T1 sequence (Q16531 whole entry partner, the tested form may be a part): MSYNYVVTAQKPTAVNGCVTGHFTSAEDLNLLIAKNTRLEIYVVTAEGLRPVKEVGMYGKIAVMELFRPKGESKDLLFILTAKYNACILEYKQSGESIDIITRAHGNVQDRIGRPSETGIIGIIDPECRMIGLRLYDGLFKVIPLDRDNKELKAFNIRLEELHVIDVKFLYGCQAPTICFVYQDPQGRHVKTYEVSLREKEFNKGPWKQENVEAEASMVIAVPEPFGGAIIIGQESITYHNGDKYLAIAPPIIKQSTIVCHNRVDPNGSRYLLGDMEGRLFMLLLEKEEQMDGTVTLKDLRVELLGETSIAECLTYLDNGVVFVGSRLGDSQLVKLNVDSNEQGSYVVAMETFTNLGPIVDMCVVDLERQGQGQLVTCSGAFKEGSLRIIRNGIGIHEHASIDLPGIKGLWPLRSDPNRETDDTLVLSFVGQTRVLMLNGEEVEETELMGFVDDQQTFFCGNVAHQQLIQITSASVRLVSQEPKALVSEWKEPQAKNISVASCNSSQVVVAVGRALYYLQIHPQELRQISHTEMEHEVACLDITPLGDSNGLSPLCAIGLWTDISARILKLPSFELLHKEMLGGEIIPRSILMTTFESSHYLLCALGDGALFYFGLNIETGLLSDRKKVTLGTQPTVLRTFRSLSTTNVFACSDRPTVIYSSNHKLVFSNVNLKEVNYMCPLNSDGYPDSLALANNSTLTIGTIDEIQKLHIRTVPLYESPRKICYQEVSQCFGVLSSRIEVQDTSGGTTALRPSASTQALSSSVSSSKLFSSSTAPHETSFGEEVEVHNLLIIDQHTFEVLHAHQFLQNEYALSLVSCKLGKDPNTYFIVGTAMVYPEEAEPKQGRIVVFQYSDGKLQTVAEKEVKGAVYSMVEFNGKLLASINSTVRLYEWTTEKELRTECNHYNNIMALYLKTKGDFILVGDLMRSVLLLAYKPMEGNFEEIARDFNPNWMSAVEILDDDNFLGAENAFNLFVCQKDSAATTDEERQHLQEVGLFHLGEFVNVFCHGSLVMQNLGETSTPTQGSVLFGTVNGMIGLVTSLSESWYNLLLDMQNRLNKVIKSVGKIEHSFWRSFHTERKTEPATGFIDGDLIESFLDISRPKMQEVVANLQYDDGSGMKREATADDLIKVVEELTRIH

[2] = test system: Jurkat cells; test: TMTpro quantitative proteomics, 16 h; conditions: for Scaled value (to 150), replicate 01 / Scaled value (to 150), replicate 02 / Scaled value (to 150), replicate 03 / Log2(ratio) compound/UT / Ratio to untreated, replicate 01 / Ratio to untreated, replicate 02 / Ratio to untreated, replicate 03: Jurkat whole cell extracts; for Scaled value (to 150), replicate 01 / Scaled value (to 150), replicate 02 / Scaled value (to 150), replicate 03: TMTpro SPS-MS3; for Log2(ratio) compound/UT: Welch's t-test with FDR correction
Description: Quantitative proteomics screens were carried out in untransduced Jurkat cells, embryonic stem cells (ESCs), and the multiple myeloma cell line, MM.1S. We used Jurkat cells, as our work up to this point had employed this cell line, and we selected ESCs and MM.1S cells as they express known CRBN neosubstrates, including IKZF1, IKZF3, RAB28, RNF166, SALL4, ZFP91, and ZNF827.
Proteomics - cell lysis and protein digestion
The viability of Jurkat cells was tested after 16-h treatment with corresponding chemicals
viable cells in each condition. Next, ~10^7 cells per condition were collected by centrifugation (1000 rpm), washed twice with ice-cold PBS, and lysed in RIPA buffer [50 mM HEPES pH 7.4, 150 mM NaCl, 1% sodium deoxycholate, 1% NP-40, 0.1% SDS, 10 mM sodium pyrophosphate, 10 mM β-glycerophosphate, 2.5 mM MgCl2, 200 µM TCEP, phosphatase and protease inhibitor cocktail (in-house)], to produce whole cell extracts. Whole-cell extracts were sonicated, and protein concentrations were determined using the Bradford assay. Protein extracts (100 µg) were subjected to disulfide bond reduction with 5 mM TCEP (10 min) and alkylation with 25 mM chloroacetamide (20 min). Methanol–chloroform precipitation was performed prior to protease digestion. In brief, four parts of neat methanol were added to each sample and vortexed, one part chloroform was added to the sample and vortexed, and finally, three parts water was added to the sample and vortexed. The sample was centrifuged at 8000 rpm for 5 min at room temperature and subsequently washed twice with 100% methanol. Samples were resuspended in 100 mM EPPS pH8.5 containing
0.1% RapiGest and digested at 37 °C for 6 h with trypsin at a 100:1 protein-to-protease ratio.
Samples were then subjected to TMTpro
labeling. The preparation of MM1S cell extracts was conducted using the same procedure as for
Jurkat cells. ESC cells were plated onto 6 cm dishes 24 hours prior to the chemical treatment.
Following the chemical treatment, the cells on the dish were washed with DPBS four times, after
which RIPA buffer was added directly to the dish, and the lysate was collected using a scraper.
The whole cell lysates were then processed similarly to the Jurkat cell lysates.
Proteomics - Tandem mass tag labeling
Proline-based reporter isobaric Tandem Mass Tag (TMTpro) labeling of dried peptide samples
resuspended in 100 mM EPPS pH 8.5, was carried out as follows. TMTpro reagent was added to
samples (100 µg peptide), along with acetonitrile, to achieve a final acetonitrile concentration of
approximately 30% (v/v). Following incubation at room temperature for 1 h, the labeling efficiency
of a small aliquot was tested. The reaction was then quenched with hydroxylamine to a final
concentration of 0.5% (v/v) for 15 min. The TMTpro-labeled samples were pooled together at a
1:1 ratio. The sample was vacuum centrifuged to near dryness and subjected to C18 solid-phase
The dried TMTpro-labeled sample was resuspended in 100 μL of 10 mM NH4HCO3 pH 8.0 and
fractionated using basic pH reverse phase HPLC 40. Briefly, samples were offline fractionated over
a 90 min run, into 96 fractions by high pH reverse-phase HPLC (Agilent LC1260) through an aeris
peptide xb-c18 column (Phenomenex; 250 mm × 3.6 mm) for total proteome with mobile phase A
containing 5% acetonitrile and 10 mM NH4HCO3, and mobile phase B containing 90% acetonitrile

[3] = protein AADAT isoform 2 (Q8N5Z0-2)

O=C1CCC(N2C(=O)c3cccc(OC(c4ccccc4)c4ccccc4)c3C2=O)C(=O)N1 (centres unmarked) [Compound 34]
Dmax ([1]; 18 h, Fig 2B): 90%

O=C1CCC(N2C(=O)c3cccc(O)c3C2=O)C(=O)N1 (centres unmarked) [Compound 4]
Dmax [1]: 46%

O=C1CCC(N2C(=O)c3ccc(C(F)(F)F)cc3C2=O)C(=O)N1 (centres unmarked) [Compound 18]
Dmax ([1]; 18 h, Fig 2B): 91%

Nc1cccc2c1CN(C1CCC(=O)NC1=O)C2=O (centres unmarked) [lenalidomide]
Scaled value (to 150), replicate 01 ([2]; protein A2M (P01023)): 10.2473
Scaled value (to 150), replicate 02 ([2]; protein A2M (P01023)): 8.044
Scaled value (to 150), replicate 03 ([2]; protein A2M (P01023)): 8.233
Scaled value (to 150), replicate 01 ([2]; protein AAAS (Q9NRG9)): 9.75
Scaled value (to 150), replicate 02 ([2]; protein AAAS (Q9NRG9)): 10.198
Scaled value (to 150), replicate 03 ([2]; protein AAAS (Q9NRG9)): 10.3119
Scaled value (to 150), replicate 01 ([2]; protein AACS (Q86V21)): 10.2128
Scaled value (to 150), replicate 02 ([2]; protein AACS (Q86V21)): 10.0368
Scaled value (to 150), replicate 03 ([2]; protein AACS (Q86V21)): 9.972
Scaled value (to 150), replicate 01 [2, 3]: 9.894
Scaled value (to 150), replicate 02 [2, 3]: 10.004
Scaled value (to 150), replicate 03 [2, 3]: 10.2911
proteins significantly degraded (quantitative proteomics) ([2]; Jurkat, 1 μM, 16 h, Welch's t test): at least 6 proteins

CN(C)c1ccc2c(c1)C(=O)N(C1CCC(=O)NC1=O)C2=O (centres unmarked) [Compound 21]
Dmax ([1]; 18 h, Fig 2B): 86%

O=C1CCC(N2C(=O)c3cccc(NCc4ccccc4)c3C2=O)C(=O)N1 (centres unmarked) [Compound 26]
Dmax ([1]; 18 h, Fig 2B): 95%

O=C1CCC(N2C(=O)c3ccc(F)cc3C2=O)C(=O)N1 (centres unmarked) [Compound 9]
Dmax ([1]; 18 h, Fig 2B): 89%

Cc1cccc2c1C(=O)N(C1CCC(=O)NC1=O)C2=O (centres unmarked) [Compound 16]
Dmax ([1]; 18 h, Fig 2B): 87%

O=C1CCC(N2C(=O)c3cccc(I)c3C2=O)C(=O)N1 (centres unmarked) [Compound 14]
Dmax ([1]; 18 h, Fig 2B): 86%

O=C1CCC(N2C(=O)c3ccc(I)cc3C2=O)C(=O)N1 (centres unmarked) [Compound 15]
Dmax ([1]; 18 h, Fig 2B): 77%

CCNc1cccc2c1C(=O)N(C1CCC(=O)NC1=O)C2=O (centres unmarked) [Compound 24]
Dmax ([1]; 18 h, Fig 2B): 96%

O=C1CCC(N2C(=O)c3ccncc3C2=O)C(=O)N1 (centres unmarked) [Compound 36]
Dmax ([1]; 18 h, Fig 2B): 91%

O=C1CCC(N2C(=O)c3cccc(OCc4cccnc4)c3C2=O)C(=O)N1 (centres unmarked) [Compound 31]
Dmax ([1]; 18 h, Fig 2B): 82%

Nc1ccc2c(c1)C(=O)N(C1CCC(=O)NC1=O)C2=O (centres unmarked) [Compound 3]
Dmax ([1]; 18 h, Fig 2B): 90%

COc1cccc2c1C(=O)N(C1CCC(=O)NC1=O)C2=O (centres unmarked) [Compound 6]
Dmax ([1]; 18 h, Fig 2B): 75%

O=C1CCC(N2C(=O)c3ccc(-c4ccccc4)cc3C2=O)C(=O)N1 (centres unmarked) [Compound 20]
Dmax ([1]; 18 h, Fig 2B): 66%

Cc1ccccc1COc1cccc2c1C(=O)N(C1CCC(=O)NC1=O)C2=O (centres unmarked) [Compound 32]
Dmax ([1]; 18 h, Fig 2B): 65%

COc1ccc2c(c1)C(=O)N(C1CCC(=O)NC1=O)C2=O (centres unmarked) [Compound 7]
Dmax ([1]; 18 h, Fig 2B): 82%

O=C1CCC(N2C(=O)c3cccnc3C2=O)C(=O)N1 (centres unmarked) [Compound 35]
Dmax ([1]; 18 h, Fig 2B): 60%

O=C1CCC(N2C(=O)c3cccc(NCc4cccnc4)c3C2=O)C(=O)N1 (centres unmarked) [Compound 27]
Dmax ([1]; 18 h, Fig 2B): 93%

Cc1ccccc1CNc1cccc2c1C(=O)N(C1CCC(=O)NC1=O)C2=O (centres unmarked) [Compound 28]
Dmax ([1]; 18 h, Fig 2B): 94%

O=C1CCC(N2C(=O)c3cccc(OCc4ccccc4)c3C2=O)C(=O)N1 (centres unmarked) [Compound 30]
Dmax ([1]; 18 h, Fig 2B): 85%

O=C1CCC(N2C(=O)c3ccc(Br)cc3C2=O)C(=O)N1 (centres unmarked) [Compound 13]
Dmax ([1]; 18 h, Fig 2B): 56%

O=C1CCC(N2C(=O)c3cccc(Cl)c3C2=O)C(=O)N1 (centres unmarked) [Compound 10]
Dmax ([1]; 18 h, Fig 2B): 88%

O=C1CCC(N2C(=O)c3ccc(Cl)cc3C2=O)C(=O)N1 (centres unmarked) [Compound 11]
Dmax ([1]; 18 h, Fig 2B): 37%

Cc1ccc2c(c1)C(=O)N(C1CCC(=O)NC1=O)C2=O (centres unmarked) [Compound 17]
Dmax ([1]; 18 h, Fig 2B): 72%

O=C1CCC(N2C(=O)c3cccc(Br)c3C2=O)C(=O)N1 (centres unmarked) [Compound 12]
Dmax ([1]; 18 h, Fig 2B): 66%

CN1CCN(c2ccc3c(c2)C(=O)N(C2CCC(=O)NC2=O)C3=O)CC1 (centres unmarked) [Cmpd23]
Scaled value (to 150), replicate 01 ([2]; protein A2M (P01023)): 8.458
Scaled value (to 150), replicate 02 ([2]; protein A2M (P01023)): 9.12
Scaled value (to 150), replicate 03 ([2]; protein A2M (P01023)): 12.2998
Scaled value (to 150), replicate 01 ([2]; protein AAAS (Q9NRG9)): 10.4661
Scaled value (to 150), replicate 02 ([2]; protein AAAS (Q9NRG9)): 9.826
Scaled value (to 150), replicate 03 ([2]; protein AAAS (Q9NRG9)): 10.0212
Scaled value (to 150), replicate 01 ([2]; protein AACS (Q86V21)): 9.826
Scaled value (to 150), replicate 02 ([2]; protein AACS (Q86V21)): 9.749
Scaled value (to 150), replicate 03 ([2]; protein AACS (Q86V21)): 9.8
Scaled value (to 150), replicate 01 [2, 3]: 10.0867
Scaled value (to 150), replicate 02 [2, 3]: 10.5129
Scaled value (to 150), replicate 03 [2, 3]: 9.582
Log2(ratio) compound/UT ([2]; protein A2M (P01023)): -0.3516
Ratio to untreated, replicate 01 ([2]; protein A2M (P01023)): 0.6228
Ratio to untreated, replicate 02 ([2]; protein A2M (P01023)): 0.6715
Ratio to untreated, replicate 03 ([2]; protein A2M (P01023)): 0.9057
Log2(ratio) compound/UT ([2]; protein AAAS (Q9NRG9)): -0.01283
Ratio to untreated, replicate 01 ([2]; protein AAAS (Q9NRG9)): 1.017
Ratio to untreated, replicate 02 ([2]; protein AAAS (Q9NRG9)): 0.9547
Ratio to untreated, replicate 03 ([2]; protein AAAS (Q9NRG9)): 0.9736
Log2(ratio) compound/UT ([2]; protein AACS (Q86V21)): -0.01545
Ratio to untreated, replicate 01 ([2]; protein AACS (Q86V21)): 0.9811
Ratio to untreated, replicate 02 ([2]; protein AACS (Q86V21)): 0.9735
Ratio to untreated, replicate 03 ([2]; protein AACS (Q86V21)): 0.9785
Log2(ratio) compound/UT [2, 3]: 0.05616
Ratio to untreated, replicate 01 [2, 3]: 1.033
Ratio to untreated, replicate 02 [2, 3]: 1.076
Ratio to untreated, replicate 03 [2, 3]: 0.9809

O=C1CCC(N2C(=O)c3cccc(F)c3C2=O)C(=O)N1 (centres unmarked) [Compound 8]
Dmax ([1]; 18 h, Fig 2B): 57%
